According to patent US20240190865A1, “T-TYPE CALCIUM CHANNEL ANTAGONISTS AND USES THEREOF” (THE BOARD OF TRUSTEES OF THE LELAND STANFORD JUNIOR …, priority 2021, published 2024):
pIC50: −log10 of the molar value.

Tested on: Miro1
Assay: Miro1 reduction after compound administration, Western blot
Type: cell-based
Settings: Western blot method

Row | SMILES | Miro1 Lowering
1 | O=C(c1cc(S(=O)(=O)Nc2ccccc2F)c(F)cc1Cl)N1CCN2CCC[C@@H]2C1 [ABT-639, 5-[(8aR)-3,4,6,7,8,8a-hexahydro-1H-pyrrolo[1,2-a]pyrazine-2-carbonyl]-4-chloro-2-fluoro-N-(2-fluorophenyl)benzenesulfonamide] | YES
2 | N#Cc1ccc(Cn2ccc(NC(=O)Cc3ccc(C4(C(F)(F)F)CC4)cc3)n2)nc1 [ACT-709478, N-(1-((5-cyanopyridin-2-yl)methyl)-1H-pyrazol-3-yl)-2-(4-(1-(trifluoromethyl)cyclopropyl)phenyl)acetamide] | YES
3 | NS(=O)(=O)Cc1noc2ccccc12 [Zonisamide, 1,2-benzisoxazole-3-methanesulfonamide] | YES

Tested on: Miro1
Assay: Miro1 fibroblast assay (CCCP challenge, Miro1 Western blot)
Type: cell-based
Settings: skin fibroblasts from human Parkinson's disease patients, CCCP 40 μM 24 hr; read-out: Fibroblast IC50 (nM), Miro1 reduction
Method: Fibroblast Challenge and Miro1 Western blot: Skin fibroblasts were obtained from human Parkinson's disease (PD) patients. CCCP was applied at 40 μM for 24 hr to fibroblasts before cells were lysed in RIPA lysis buffer with 0.25 mM PMSF and protease inhibitors. Lysates were cleared by centrifugation at 17,000×g for 10 min at 4° C., and supernatants were run in an SDS-PAGE for Western blotting. After electrophoresis, nitrocellulose membranes (Bio-Rad) were used in wet transfer. Transferred membranes were first blocked for 1 hr in phosphate-buffered saline (PBS) containing 5% fat-free milk and 0.1% tween-20, and then incubated with the following primary antibodies: rabbit anti-Miro1 (HPA010687, Sigma-Aldrich) at 1:1,000, mouse anti-ATP50 (AB14730, Abcam) at 1:5,000, mouse anti-β-Actin (A00702, Genscript) at 1:3,000, or rabbit anti-VDAC (4661S, Cell Signaling Technology) at 1:1,000 at 4° C. overnight in blocking buffer. West Dura ECL reagents (GE Healthcare) were used for ECL immunoblotting with HRP-conjugated goat anti-mouse or anti-rabbit, anti-mouse IgG (Jackson ImmunoResearch Laboratories) at 1:5-10,000. Membranes were exposed to UltraCruz autoradiography films (Santa Cruz Biotechnology) and developed on a Konica Minolta SRX-101A developer.
T-type calcium channel antagonists that could reduce Miro1 level were tested in the above PD fibroblast assay.

Row | SMILES | IC50 [nM]
4 | O=C(c1cc(S(=O)(=O)Nc2ccccc2F)c(F)cc1Cl)N1CCN2CCC[C@@H]2C1 [ABT-639, 5-[(8aR)-3,4,6,7,8,8a-hexahydro-1H-pyrrolo[1,2-a]pyrazine-2-carbonyl]-4-chloro-2-fluoro-N-(2-fluorophenyl)benzenesulfonamide] | 5410
5 | N#Cc1ccc(Cn2ccc(NC(=O)Cc3ccc(C4(C(F)(F)F)CC4)cc3)n2)nc1 [ACT-709478, N-(1-((5-cyanopyridin-2-yl)methyl)-1H-pyrazol-3-yl)-2-(4-(1-(trifluoromethyl)cyclopropyl)phenyl)acetamide] | 3930

Molecular target: Cav3.2 (Homo sapiens (Human), UniProt O95180)
Assay: In vitro patch clamp assay (SyncroPatch 384PE)
Type: cell-based
Settings: HEK293 cells
Method: Patch clamp assays were performed at Charles River. HEK293 cells were cultured in Dulbecco's Modified Eagle Medium/Nutrient Mixture F-12 (D-MEM/F-12) supplemented with 10% fetal bovine serum, 100 U/mL penicillin G sodium, 100 μg/mL streptomycin sulfate and 500 μg/mL G418. Before testing, cells in culture dishes were washed twice with Hank's Balanced Salt Solution, treated with Accutase™ and re-suspended in the culture media (˜20×10^6 cells in 20 mL). Cells in suspension were allowed to recover for 10 minutes in tissue culture incubator set at 37° C. in a humidified 95% air: 5% CO2 atmosphere. Immediately before use in the SyncroPatch 384PE system (SP384PE), the cells were washed twice in extracellular buffer (HB-PS) to remove the culture medium and re-suspended in 20 mL of HB-PS. Extracellular buffer was loaded into the wells of Nanion 384-well Patch Clamp (NPC-384, 4×M) chip (60 μL per well). Then, cell suspension was pipetted into the wells (20 μL per well) of the chip. After establishment of the whole-cell configuration, membrane currents were recorded using patch clamp amplifier in the SP384PE system.

Chain of Cav3.2 (O95180 whole entry): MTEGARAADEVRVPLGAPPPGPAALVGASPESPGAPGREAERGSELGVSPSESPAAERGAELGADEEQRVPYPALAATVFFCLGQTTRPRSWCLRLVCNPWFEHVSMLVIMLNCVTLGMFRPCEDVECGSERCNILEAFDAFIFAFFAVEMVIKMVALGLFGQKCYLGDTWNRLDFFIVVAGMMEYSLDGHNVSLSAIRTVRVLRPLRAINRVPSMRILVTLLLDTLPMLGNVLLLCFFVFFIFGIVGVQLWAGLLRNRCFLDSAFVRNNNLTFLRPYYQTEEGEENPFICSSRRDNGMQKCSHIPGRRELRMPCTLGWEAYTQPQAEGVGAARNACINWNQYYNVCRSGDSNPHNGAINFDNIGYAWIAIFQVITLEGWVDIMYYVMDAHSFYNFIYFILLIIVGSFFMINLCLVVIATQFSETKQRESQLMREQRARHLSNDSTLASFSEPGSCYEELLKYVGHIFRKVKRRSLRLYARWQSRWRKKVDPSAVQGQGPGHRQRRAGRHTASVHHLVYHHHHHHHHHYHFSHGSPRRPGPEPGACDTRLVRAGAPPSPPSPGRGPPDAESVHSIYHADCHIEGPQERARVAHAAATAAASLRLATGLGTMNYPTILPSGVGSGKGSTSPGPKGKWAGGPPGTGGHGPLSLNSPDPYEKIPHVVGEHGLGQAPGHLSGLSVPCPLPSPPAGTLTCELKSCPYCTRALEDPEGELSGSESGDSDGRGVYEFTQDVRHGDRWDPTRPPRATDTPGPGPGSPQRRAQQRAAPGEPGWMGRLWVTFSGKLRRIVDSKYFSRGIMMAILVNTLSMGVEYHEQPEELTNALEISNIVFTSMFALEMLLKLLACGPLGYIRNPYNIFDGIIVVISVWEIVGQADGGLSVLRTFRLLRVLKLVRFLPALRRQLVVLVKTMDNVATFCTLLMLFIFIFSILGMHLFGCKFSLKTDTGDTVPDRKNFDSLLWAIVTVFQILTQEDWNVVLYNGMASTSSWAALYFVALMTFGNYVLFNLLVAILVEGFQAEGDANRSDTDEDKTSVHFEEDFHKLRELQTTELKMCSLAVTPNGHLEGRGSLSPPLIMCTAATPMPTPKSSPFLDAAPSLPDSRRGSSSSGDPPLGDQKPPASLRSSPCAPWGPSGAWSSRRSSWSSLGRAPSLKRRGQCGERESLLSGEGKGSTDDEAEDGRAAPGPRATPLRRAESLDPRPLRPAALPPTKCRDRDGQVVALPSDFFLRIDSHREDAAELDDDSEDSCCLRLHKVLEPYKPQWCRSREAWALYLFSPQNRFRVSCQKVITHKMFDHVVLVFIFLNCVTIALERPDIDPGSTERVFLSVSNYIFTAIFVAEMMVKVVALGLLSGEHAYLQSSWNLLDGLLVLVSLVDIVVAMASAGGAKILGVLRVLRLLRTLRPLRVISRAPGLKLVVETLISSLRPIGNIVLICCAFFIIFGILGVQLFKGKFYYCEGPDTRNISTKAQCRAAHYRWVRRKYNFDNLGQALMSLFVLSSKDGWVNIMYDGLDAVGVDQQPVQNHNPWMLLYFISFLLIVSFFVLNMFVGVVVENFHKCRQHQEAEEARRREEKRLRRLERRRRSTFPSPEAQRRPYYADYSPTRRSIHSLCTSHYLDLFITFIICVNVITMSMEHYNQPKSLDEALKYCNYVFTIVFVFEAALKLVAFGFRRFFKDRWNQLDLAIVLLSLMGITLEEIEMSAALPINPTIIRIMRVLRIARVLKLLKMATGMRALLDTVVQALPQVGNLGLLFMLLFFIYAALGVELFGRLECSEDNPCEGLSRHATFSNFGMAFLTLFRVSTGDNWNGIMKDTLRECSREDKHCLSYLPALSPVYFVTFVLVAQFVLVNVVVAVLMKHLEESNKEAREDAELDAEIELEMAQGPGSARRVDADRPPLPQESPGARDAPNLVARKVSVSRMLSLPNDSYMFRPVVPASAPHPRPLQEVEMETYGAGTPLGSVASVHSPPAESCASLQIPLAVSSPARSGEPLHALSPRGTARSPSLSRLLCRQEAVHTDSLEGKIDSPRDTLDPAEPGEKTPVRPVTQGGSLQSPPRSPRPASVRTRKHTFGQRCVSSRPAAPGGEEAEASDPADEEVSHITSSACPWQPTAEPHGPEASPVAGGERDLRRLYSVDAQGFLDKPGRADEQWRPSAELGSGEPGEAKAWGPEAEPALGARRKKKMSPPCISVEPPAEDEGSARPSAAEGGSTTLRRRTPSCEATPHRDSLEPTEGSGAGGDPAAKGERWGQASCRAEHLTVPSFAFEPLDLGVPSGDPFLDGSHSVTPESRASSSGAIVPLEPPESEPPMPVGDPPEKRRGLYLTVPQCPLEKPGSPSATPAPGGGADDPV

Row | SMILES | pIC50
6 | C[C@@H](NC(=O)Cc1cnc(C2CC2)c(Cl)c1)c1cc2cnn(CC(F)(F)F)c2cn1 [Example 36, (R)-2-(5-chloro-6-cyclopropylpyridin-3-yl)-N-(1-(1-(2,2,2-trifluoroethyl)-1H-pyrazolo[3,4-c]pyridin-5-yl)ethyl)acetamide] | 6.06
7 | CC[C@@H](NC(=O)Cc1ccc(C(F)(F)F)cc1)c1cc2cnn(CC(F)(F)F)c2cn1 [Example 45, (R)—N-(1-(1-(2,2,2-trifluoroethyl)-1H-pyrazolo[3,4-c]pyridin-5-yl)propyl)-2-(4-(trifluoromethyl)phenyl)acetamide] | 6.95
8 | C[C@@H](NC(=O)Cc1ccc(C2(C#N)CC2)cc1)c1cc2cnn(CC(F)(F)F)c2cn1 [Example 47, (R)-2-(4-(1-cyanocyclopropyl)phenyl)-N-(1-(1-(2,2,2-trifluoroethyl)-1H-pyrazolo[3,4-c]pyridin-5-yl)ethyl)acetamide] | 6.66
9 | C[C@@H](NC(=O)Cc1ccc2c(c1)c(C#N)cn2C)c1cc2cnn(CC(F)(F)F)c2cn1 [Example 50, (R)-2-(3-cyano-1-methyl-1H-indol-5-yl)-N-(1-(1-(2,2,2-trifluoroethyl)-1H-pyrazolo[3,4-c]pyridin-5-yl)ethyl)acetamide] | 6.07
10 | C[C@@H](NC(=O)Cc1ccc(C(F)(F)F)cc1)c1cc2ccn(CC(F)(F)F)c2cn1 [Example 51, (R)—N-(1-(1-(2,2,2-trifluoroethyl)-1H-pyrrolo[2,3-c]pyridin-5-yl)ethyl)-2-(4-(trifluoromethyl)phenyl)acetamide] | 6.39
11 | Cc1c(C#N)c2cc(CC(=O)N[C@H](C)c3cc4cnn(CC(F)(F)F)c4cn3)ccc2n1C [Example 54, (R)-2-(3-cyano-1,2-dimethyl-1H-indol-5-yl)-N-(1-(1-(2,2,2-trifluoroethyl)-1H-pyrazolo[3,4-c]pyridin-5-yl)ethyl)acetamide] | 6.28
12 | [2H][C@](C)(NC(=O)Cc1ccc(C(F)(F)F)cc1)c1cc2cnn(CC(F)(F)F)c2cn1 [Example 55, (R)—N-(1-(1-(2,2,2-trifluoroethyl)-1H-pyrazolo[3,4-c]pyridin-5-yl)ethyl-1-d)-2-(4-(trifluoromethyl)phenyl)acetamide] | 6.47
13 | CC(C)c1ccc(CC(=O)N[C@H](C)c2ccc(OCC(F)(F)F)cn2)cc1 [Example 56, 2-(4-isopropylphenyl)-N-[(1R)-1-(5-(2,2,2-trifluoroethoxy)pyridin-2-yl)ethyl]acetamide] | 7.43
14 | CC(C)c1ccc(CC(=O)N[C@H](C)c2cc3c(cn2)OC(F)(F)O3)cc1 [Example 57, (R)—N-(1-(2,2-difluoro-[1,3]dioxolo[4,5-c]pyridin-6-yl)ethyl)-2-(4-isopropylphenyl)acetamide] | 6.06
15 | C[C@@H](NC(=O)Cc1ccc(C2(C(F)(F)F)CC2)nc1)c1ncc(Cl)s1 [Example 58, (R)—N-(1-(5-chlorothiazol-2-yl)ethyl)-2-(6-(1-(trifluoromethyl)cyclopropyl)pyridin-3-yl)acetamide] | 5.31
16 | C[C@@H](NC(=O)Cc1ccc(C2(C(F)(F)F)CC2)nc1)c1ccc(OCC(F)(F)F)cn1 [Example 59, (R)—N-(1-(5-(2,2,2-trifluoroethoxy)pyridin-2-yl)ethyl)-2-(6-(1-(trifluoromethyl)cyclopropyl)pyridin-3-yl)acetamide] | 7.01

Further lines, results first:

Row | pIC50 | SMILES
17 | 7.08 | C[C@@H](NC(=O)Cc1ccc(C(C)(F)F)c(Cl)c1)c1cc2cnn(CC(F)(F)F)c2cn1 [Example 37, (R)-2-(3-chloro-4-(1,1-difluoroethyl)phenyl)-N-(1-(1-(2,2,2-trifluoroethyl)-1H-pyrazolo[3,4-c]pyridin-5-yl)ethyl)acetamide]
18 | 6.91 | C[C@@H](NC(=O)Cc1ccc(C(C)(F)F)c(F)c1)c1cc2cnn(CC(F)(F)F)c2cn1 [Example 38, (R)-2-(4-(1,1-difluoroethyl)-3-fluorophenyl)-N-(1-(1-(2,2,2-trifluoroethyl)-1H-pyrazolo[3,4-c]pyridin-5-yl)ethyl)acetamide]
19 | 6.28 | C[C@@H](NC(=O)Cc1cnc(C2CC2)c(F)c1)c1cc2cnn(CC(F)(F)F)c2cn1 [Example 39, (R)-2-(6-cyclopropyl-5-fluoropyridin-3-yl)-N-(1-(1-(2,2,2-trifluoroethyl)-1H-pyrazolo[3,4-c]pyridin-5-yl)ethyl)acetamide]
20 | 6.08 | C[C@@H](NC(=O)Cc1ccc(C(F)(F)F)cc1)c1cc2cnn(CC(C)(F)F)c2cn1 [Example 40, (R)—N-(1-(1-(2,2-difluoropropyl)-1H-pyrazolo[3,4-c]Pyridin-5-yl)ethyl)-2-(4-(trifluoromethyl)phenyl)acetamide]
21 | 6.14 | C[C@@H](NC(=O)Cc1ccc(C(C)(F)F)cc1)c1cc2cnn(CC(C)(F)F)c2cn1 [Example 41, (R)-2-(4-(1,1-difluoroethyl)phenyl)-N-(1-(1-(2,2-difluoropropyl)-1H-pyrazolo[3,4-c]pyridin-5-yl)ethyl)acetamide]
22 | 6.40 | C[C@@H](NC(=O)Cc1ccc(C(F)(F)F)c(F)c1)c1cc2cnn(CC(F)(F)F)c2cn1 [Example 42, (R)-2-(3-fluoro-4-(trifluoromethyl)phenyl)-N-(1-(1-(2,2,2-trifluoroethyl)-1H-pyrazolo[3,4-c]pyridin-5-yl)ethyl)acetamide]
23 | 6.67 | C[C@@H](NC(=O)Cc1ccc(C(F)(F)F)c(Cl)c1)c1cc2cnn(CC(F)(F)F)c2cn1 [Example 43, (R)-2-(3-chloro-4-(trifluoromethyl)phenyl)-N-(1-(1-(2,2,2-trifluoroethyl)-1H-pyrazolo[3,4-c]pyridin-5-yl)ethyl)acetamide]
24 | 7.15 | C[C@@H](NC(=O)Cc1ccc(C2(C(F)(F)F)CC2)cc1)c1cc2cnn(CC(F)(F)F)c2cn1 [Example 44, (R)—N-(1-(1-(2,2,2-trifluoroethyl)-1H-pyrazolo[3,4-c]pyridin-5-yl)ethyl)-2-(4-(1-(trifluoromethyl)cyclopropyl)phenyl)acetamide]
25 | 6.09 | Cc1c2ccc(CC(=O)N[C@H](C)c3cc4cnn(CC(F)(F)F)c4cn3)cc2nn1C [Example 46, (R)-2-(2,3-dimethyl-2H-indazol-6-yl)-N-(1-(1-(2,2,2-trifluoroethyl)-1H-pyrazolo[3,4-c]pyridin-5-yl)ethyl)acetamide]
26 | 6.59 | C[C@@H](NC(=O)Cc1ccc2c(c1)OC(F)(F)O2)c1cc2cnn(CC(F)(F)F)c2cn1 [Example 48, (R)-2-(2,2-difluorobenzo[d][1,3]dioxol-5-yl)-N-(1-(1-(2,2,2-trifluoroethyl)-1H-pyrazolo[3,4-c]pyridin-5-yl)ethyl)acetamide]
27 | 6.45 | Cc1nn(C)c2ccc(CC(=O)N[C@H](C)c3cc4cnn(CC(F)(F)F)c4cn3)cc12 [Example 49, (R)-2-(1,3-dimethyl-1H-indazol-5-yl)-N-(1-(1-(2,2,2-trifluoroethyl)-1H-pyrazolo[3,4-c]pyridin-5-yl)ethyl)acetamide]
28 | 6.41 | C[C@@H](NC(=O)Cc1ccc(C(C)(F)F)c(C#N)c1)c1cc2cnn(CC(F)(F)F)c2cn1 [Example 52, (R)-2-(3-cyano-4-(1,1-difluoroethyl)phenyl)-N-(1-(1-(2,2,2-trifluoroethyl)-1H-pyrazolo[3,4-c]pyridin-5-yl)ethyl)acetamide]
29 | 6.04 | Cc1nc2cc(CC(=O)N[C@H](C)c3cc4cnn(CC(F)(F)F)c4cn3)ccc2n1C [Example 53, (R)-2-(1,2-dimethyl-1H-benzo[d]imidazol-5-yl)-N-(1-(1-(2,2,2-trifluoroethyl)-1H-pyrazolo[3,4-c]pyridin-5-yl)ethyl)acetamide]
